Here are results for 6 compounds from patent US20140113877A1, “NOVEL 3,4,4A,10B-TETRAHYDRO-1H-THIOPYRANO[4,3-C] ISOQUINOLINE COMPOUNDS” (Takeda GmbH, priority 2011, published 2014).

Read-outs that look alike come from different tables or passages of the source.

One experiment has as its target T1, PDE4B1 (Homo sapiens, UniProt Q07343).
T1 construct: made in house; host or cells: SF21 insect cells (baculovirus; virus prepared in SF9 cells)
Description: Inhibition of PDE4B1 activity (SPA, [3H]cAMP). Particulars: recombinant PDE4B1, 0.5 μM cAMP; binned: below 8 / between 8 and 9; read-out: PDE4B1 inhibitory values measured as −logIC50 (converted). The class given is biochemical. Here is the method:
The PDE4B1 (GB no. L20966) was a gift of Prof. M. Conti (Stanford University, USA). It was amplified from the original plasmid (pCMV5) via PCR with primers Rb18 (5′-[…]-3′) and Rb10 (5′-[…]-3′) and cloned into the pCR-Bac vector (Invitrogen, Groningen, NL).
The recombinant baculovirus was prepared by means of homologous recombination in SF9 insect cells. The expression plasmids were cotransfected with Baculo-Gold DNA (Pharmingen, Hamburg) using a standard protocol (Pharmingen, Hamburg). Wt virus-free recombinant virus supernatants were selected using plaque assay methods. After that, high-titre virus supernatants were prepared by amplifying 3 times. PDE4B1 was expressed in SF21 cells by infecting 2×10^6 cells/ml with an MOI (multiplicity of infection) between 1 and 10 in the serum-free SF900 medium (GIBCO Life Technologies, Karlsruhe, Germany). The cells were cultured at 28° C. for 48-72 hours, after which they were pelleted for 5-10 min at 1000×g and 4° C.
The SF21 insect cells were resuspended, at a concentration of approx. 10^7 cells/ml, in ice-cold (4° C.) homogenization buffer (20 mM Tris, pH 8.2, containing the following additions: 140 mM NaCl, 3.8 mM KCl, 1 mM EGTA, 1 mM MgCl2, 10 mM β-mercaptoethanol, 2 mM benzamidine, 0.4 mM Pefablock, 10 μM leupeptin, 10 μM pepstatin A, 5 μM trypsin inhibitor) and disrupted by ultrasonication. The homogenate was then centrifuged for 10 min at 1000×g and the supernatant was stored at −80° C. until subsequent use (see below). The protein content was determined by the Bradford method (BioRad, Munich) using BSA (Bovine serum albumin) as the standard.
PDE4B1 activities were measured in a 96-well platform using SPA (scintillation proximity assay) yttrium silicate beads (RPNQ1050 from GE Healthcare). In a first step the PDE activity operated hydrolysis of either [^3H] cAMP (substrate) into [^3H] 5′AMP. In a second step substrate and product were distinguished following addition of SPA yttrium silicate beads. Indeed, in the presence of zinc sulphate the linear [^3H] […] Close proximity of bound [^3H] […] The test volume was 100 μl and finally contained 20 mM Tris buffer (pH 7.4), 0.1 mg/ml of BSA, 5 mM Mg^2+, 0.5 μM cAMP (including about 50,000 cpm of [3H]cAMP) as substrate, 1 μl of the respective substance dilution in DMSO and sufficient recombinant PDE (1000×g supernatant, see above) to ensure that 10-20% of the cAMP was converted under the said experimental conditions. […] After a preincubation of 5 min at 37° C., the reaction was commenced by adding the substrate (cAMP) and the assays were incubated for a further 15 min. Reactions were terminated by adding SPA beads (50 μl). In agreement with the manufacturer's instructions, the SPA beads had previously been resuspended in water, but were then diluted 1:3 (v/v) in water. This diluted solution further contained 3 mM IBMX (isobutylmethylxanthine) to ensure a complete block of PDE activity. Once the beads were sedimented (>30 min), the MTP's (microtiter plate) were analyzed in commercially available luminescence detection devices. The corresponding IC50 values of the compounds for inhibition of PDE4B1 activity were determined from the concentration-effect curves by means of non-linear regression.
For the following compounds PDE4B1 inhibitory values [measured as −logIC50 (mol/l)] below 8 and between 8 and 9 have been determined. The numbers of the compounds correspond to the numbers of the examples.

In another experiment the target is T2, human PDE5 (Homo sapiens, UniProt O76074).
T2 construct: from tissue; host or cells: human platelets from fresh donor blood (platelet lysate)
Description: Inhibition of PDE5 activity (SPA, [3H]cGMP, platelet lysate). Format: biochemical. Particulars: 0.5 μM cGMP, binned: below 8 / between 8 and 9, read-out: PDE5 inhibitory values measured as −logIC50 (converted). Here is the method: As a source for human PDE5, platelets were used. For that purpose, 150 ml fresh blood from human donors anticoagulated with citrate [final concentration 0.3% (w/v)] was centrifuged at 200 g for 10 min to obtain the so-called platelet-rich-plasma (PRP) as a supernatant. 1/10 volume of ACD solution (85 mM Na3-citrate, 111 mM D-glucose, 71 mM citric acid, pH 4.4) was added to 9/10 volume of PRP. After centrifugation (1,400 g, 10 min) the cell pellet was resuspended in 3 ml homogenization buffer (NaCl 140 mM, KCl 3.8 mM, EGTA (ethylene glycol tetraacetic acid) 1 mM, MgCl2 1 mM, Tris-HCl 20 mM, beta-mercaptoethanol 1 mM, pH 8.2) plus protease-inhibitor mix resulting in final concentrations of 0.5 mM Pefablock (Roche), 10 μM Leupeptin, 5 μM Trypsine inhibitor, 2 mM Benzamidin and 10 μM Pepstatin A. The suspension was sonicated and thereafter centrifuged for 15 min at 10,000 g. The resulting supernatant (platelet lysate) was used for enzymatic assays.
PDE5 activities were measured in a 96-well platform using SPA (scintillation proximity assay) yttrium silicate beads (RPNQ1050 from GE Healthcare). In a first step the PDE activity operated hydrolysis of either [^3H] cGMP (substrate) into [^3H] 5′GMP. In a second step substrate and product were distinguished following addition of SPA yttrium silicate beads. Indeed, in the presence of zinc sulphate the linear [^3H] […] Close proximity of bound [^3H] […] The test volume was 100 μl and contained 20 mM Tris buffer (pH 7.4), 0.1 mg of BSA (bovine serum albumin)/ml, 5 mM Mg^2+, 1 μM motapizone (PDE3 Inhibitor), 10 nM PDE2 inhibitor 2-(3,4-dimethoxybenzyl)-7-[(1R,2R)-2-hydroxy-1-(2-phenylethyl)propyl]-5-methylimidazo[5,1-f][1,2,4]triazin-4(3H)-one, 0.5 μM cGMP (cyclic guanosine monophosphate) (including about 50,000 cpm of [3H]cGMP as a tracer) (substrate), 1 μl of the respective compound dilution in dimethylsulfoxide (DMSO) and sufficient PDE5-containing platelet lysat (10,000×g supernatant, see above) to ensure that 10-20% of the cGMP was converted under the said experimental conditions. […] After a preincubation of 5 min at 37° C., the reaction was commenced by adding the substrate (cGMP) and the assay was incubated for a further 15 min. The reaction was terminated by adding SPA beads (50 μl). In agreement with the manufacturer's instructions, the SPA beads had previously been resuspended in water, but were then diluted 1:3 (v/v) in water. This diluted solution also contained 3 mM 8-methoxymethyl-3-isobutyl-1-methylxanthine (IBMX) to ensure a complete block of PDE activity. Once the beads were sedimented (>30 min), the MTP's were analyzed in commercially available luminescence detection devices. The corresponding IC50 values of the compounds for inhibition of PDE activity were determined from the concentration-effect curves by means of non-linear regression.
For the following compounds PDE5 inhibitory values [measured as −logIC50 (mol/l)] below 8 and between 8 and 9 have been determined. The numbers of the compounds correspond to the numbers of the examples.

The subject of experiment [1] is bleomycin-induced lung fibrotic remodeling. Particulars: rat, preventive and therapeutic protocols; cited from earlier work.
Experiment [2] shares this test system. Particulars: mice, preventive and therapeutic protocols; cited from earlier work.
The test system of experiment [3] is bleomycin-induced pulmonary fibrosis and pulmonary hypertension. Particulars: in vivo; cited from earlier work.
Another experiment concerns pulmonary fibrosis. Particulars: patients with pulmonary fibrosis, open-label trials; cited from earlier work.

T1 sequence (Q07343 whole entry): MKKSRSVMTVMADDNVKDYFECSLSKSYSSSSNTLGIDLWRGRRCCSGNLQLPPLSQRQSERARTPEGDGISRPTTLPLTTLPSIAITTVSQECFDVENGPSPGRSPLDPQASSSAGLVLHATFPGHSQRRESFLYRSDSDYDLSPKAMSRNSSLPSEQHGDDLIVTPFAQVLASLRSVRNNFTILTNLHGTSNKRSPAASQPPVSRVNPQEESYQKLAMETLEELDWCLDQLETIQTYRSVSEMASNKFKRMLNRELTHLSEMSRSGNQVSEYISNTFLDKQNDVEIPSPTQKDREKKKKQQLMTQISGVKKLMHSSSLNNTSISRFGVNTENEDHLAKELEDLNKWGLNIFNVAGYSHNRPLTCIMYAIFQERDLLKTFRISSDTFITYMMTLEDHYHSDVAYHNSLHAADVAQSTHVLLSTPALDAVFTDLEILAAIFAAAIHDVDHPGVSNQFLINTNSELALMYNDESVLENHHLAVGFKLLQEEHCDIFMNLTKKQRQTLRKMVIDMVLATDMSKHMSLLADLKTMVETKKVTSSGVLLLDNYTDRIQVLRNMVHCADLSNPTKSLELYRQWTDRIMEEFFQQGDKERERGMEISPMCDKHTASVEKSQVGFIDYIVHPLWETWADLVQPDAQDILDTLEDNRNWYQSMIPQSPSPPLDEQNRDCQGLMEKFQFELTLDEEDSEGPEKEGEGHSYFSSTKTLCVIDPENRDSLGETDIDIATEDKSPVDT

With `CCOc1cc2c(cc1OC)C(c1ccc(C(=O)N3CCC(n4c(=O)c5sc(-c6ccc(F)cc6C)cc5n(Cc5ccc(OC)c(F)c5)c4=O)CC3)cc1)=N[C@@H]1CCSC[C@H]21` [Example 18, 3-[1-({4-[(4aR,10bR)-9-ethoxy-8-methoxy-3,4,4a,10b-tetrahydro-1H-thiopyrano[4,3-c]isoquinolin-6-yl]phenyl}carbonyl)piperidin-4-yl]-1-(3-fluoro-4-methoxybenzyl)-6-(4-fluoro-2-methylphenyl)thieno[3,2-d]pyrimidine-2,4(1H,3H)-dione], the IC50 at PDE4B1 was > 10 nM; on human PDE5 it was 1 to 10 nM.
As for `CCOc1cc2c(cc1OC)C(c1ccc(C(=O)N3CCC(n4c(=O)c5sc(-c6ccccc6OC)cc5n(Cc5ccc(OC)c(F)c5)c4=O)CC3)cc1)=N[C@@H]1CCSC[C@H]21` [Example 19, 3-[1-({4-[(4aR,10bR)-9-ethoxy-8-methoxy-3,4,4a,10b-tetrahydro-1H-thiopyrano[4,3-c]isoquinolin-6-yl]phenyl}carbonyl)piperidin-4-yl]-1-(3-fluoro-4-methoxybenzyl)-6-(2-methoxyphenyl)thieno[3,2-d]pyrimidine-2,4(1H,3H)-dione], the IC50 on PDE4B1 and at human PDE5 was 1 to 10 nM in each case.
Regarding `CCOc1cc2c(cc1OC)C(c1cccc(C(=O)N3CCC(n4c(=O)c5sc(-c6ccc7c(c6)OCO7)cc5n(Cc5ccc(OC)c(F)c5)c4=O)CC3)c1)=N[C@@H]1CCSC[C@H]21` [Example 20, 6-(1,3-benzodioxol-5-yl)-3-[1-({3-[(4aR,10bR)-9-ethoxy-8-methoxy-3,4,4a,10b-tetrahydro-1H-thiopyrano[4,3-c]isoquinolin-6-yl]phenyl}carbonyl)piperidin-4-yl]-1-(3-fluoro-4-methoxybenzyl)thieno[3,2-d]pyrimidine-2,4(1H,3H)-dione], the IC50 on PDE4B1 is > 10 nM; at human PDE5, 1 to 10 nM.
The like results for `CCOc1cc2c(cc1OC)C(c1cccc(C(=O)N3CCC(n4c(=O)c5sc(-c6ccccc6)cc5n(Cc5cc(F)c(OC)c(F)c5)c4=O)CC3)c1)=N[C@@H]1CCSC[C@H]21` [Example 21, 1-(3,5-difluoro-4-methoxybenzyl)-3-[1-({3-[(4aR,10bR)-9-ethoxy-8-methoxy-3,4,4a,10b-tetrahydro-1H-thiopyrano[4,3-c]isoquinolin-6-yl]phenyl}carbonyl)piperidin-4-yl]-6-phenylthieno[3,2-d]pyrimidine-2,4(1H,3H)-dione] were, in that order, > 10 nM and 1 to 10 nM.
In the case of `O=C(Nc1c(Cl)cncc1Cl)c1ccc(OC(F)F)c(OCC2CC2)c1` [roflumilast], the “effect on bleomycin-induced lung fibrotic remodeling” value in experiment [1] and in experiment [2] was “alleviate bleomycin-induced lung fibrotic remodeling” each time.
In the case of `CCCc1nn(C)c2c(=O)[nH]c(-c3cc(S(=O)(=O)N4CCN(C)CC4)ccc3OCC)nc12` [sildenafil], in experiment [3], the “effect on bleomycin-induced pulmonary fibrosis and pulmonary hypertension” value was “attenuates bleomycin-induced pulmonary fibrosis and pulmonary hypertension”. Besides, in the experiment with pulmonary fibrosis, the exercise tolerance entry was “increases exercise tolerance”; the “lung hemodynamic parameters (vascular resistance and ventilation/perfusion matching)” value is given as “improves lung hemodynamic parameters”.
